Experimental data as given in US20180370927A1, “MICROBIOCIDAL OXADIAZOLE DERIVATIVES” (SYNGENTA PARTICIPATIONS AG, priority 2015, published 2018).

Experiments:
[1] = test system: Puccinia recondita f. Sp. Tritici; experiment: Puccinia recondita f. sp. tritici / wheat / leaf disc preventative (brown rust); type: in vivo; conditions: foliar, 200 ppm in the applied formulation, wheat leaf segments, preventative, assessed 7 to 9 days after application, read-out: disease control compared to untreated control leaf disks
Description: (§1) Leaf disks or leaf segments of various plant species are cut from plants grown in a greenhouse. The cut leaf disks or segments are placed in multiwell plates (24-well format) onto water agar. The leaf disks are sprayed with a test solution before (preventative) or after (curative) inoculation. Compounds to be tested are prepared as DMSO solutions (max. 10 mg/mL) which are diluted to the appropriate concentration with 0.025% Tween20 just before spraying. The inoculated leaf disks or segments are incubated under defined conditions (temperature, relative humidity, light, etc.) according to the respective test system. A single evaluation of disease level is carried out 3 to 14 days after inoculation, depending on the pathosystem. Percent disease control relative to the untreated check leaf disks or segments is then calculated.
Example 1: Fungicidal Activity Against Puccinia recondita f. Sp. Tritici/Wheat/Leaf Disc Preventative (Brown Rust)
Wheat leaf segments cv. Kanzler were placed on agar in multiwell plates (24-well format) and sprayed with the formulated test compound diluted in water. The leaf disks were inoculated with a spore suspension of the fungus 1 day after application. The inoculated leaf segments were incubated at 19° C. and 75% relative humidity (rh) under a light regime of 12 hours light/12 hours darkness in a climate cabinet and the activity of a compound was assessed as percent disease control compared to untreated when an appropriate level of disease damage appears in untreated check leaf segments (7 to 9 days after application).
(§2) The following compounds at 200 ppm in the applied formulation give at least 80% disease control in this test when compared to untreated control leaf disks under the same conditions, which show extensive disease development.

[2] = test system: Puccinia recondita f. Sp. Tritici; experiment: Puccinia recondita f. sp. tritici / wheat / leaf disc curative (brown rust); type: in vivo; conditions: foliar, 200 ppm in the applied formulation, wheat leaf segments, curative (applied 1 day after inoculation), assessed 6 to 8 days after application, read-out: disease control compared to untreated control leaf disks
Description: as §1
Example 2: Fungicidal Activity Against Puccinia recondita f. Sp. Tritici/Wheat/Leaf Disc Curative (Brown Rust)
Wheat leaf segments cv. Kanzler are placed on agar in multiwell plates (24-well format). The leaf segments are then inoculated with a spore suspension of the fungus. Plates were stored in darkness at 19° C. and 75% relative humidity. The formulated test compound diluted in water was applied 1 day after inoculation. The leaf segments were incubated at 19° C. and 75% relative humidity under a light regime of 12 hours light/12 hours darkness in a climate cabinet and the activity of a compound was assessed as percent disease control compared to untreated when an appropriate level of disease damage appears in untreated check leaf segments (6 to 8 days after application).
as §2

[3] = test system: Glomerella lacenarium (Colletotrichum lacenarium); experiment: Glomerella lacenarium (Colletotrichum lacenarium) liquid culture / cucumber / preventative (anthracnose); type: cell-based; conditions: 20 ppm in the applied formulation, liquid culture in PDB, 24° C., 3 to 4 days after application, read-out: disease control (inhibition of growth, photometric) compared to untreated control
Description: Mycelia fragments or conidia suspensions of a fungus prepared either freshly from liquid cultures of the fungus or from cryogenic storage, are directly mixed into nutrient broth. DMSO solutions of the test compound (max. 10 mg/ml) are diluted with 0.025% Tween20 by a factor of 50 and 10 μL of this solution is pipetted into a microtiter plate (96-well format). The nutrient broth containing the fungal spores/mycelia fragments is then added to give an end concentration of the tested compound. The test plates are incubated in the dark at 24° C. and 96% relative humidity. The inhibition of fungal growth is determined photometrically after 2 to 7 days, depending on the pathosystem, and percent antifungal activity relative to the untreated check is calculated.
Example 4: Fungicidal Activity Against Glomerella lacenarium (Colletotrichum lacenarium) Liquid Culture/Cucumber/Preventative (Anthracnose)
Conidia of the fungus from cryogenic storage are directly mixed into nutrient broth (PDB—potato dextrose broth). After placing a (DMSO) solution of test compound into a microtiter plate (96-well format), the nutrient broth containing the fungal spores is added. The test plates are incubated at 24° C. and the inhibition of growth is measured photometrically 3 to 4 days after application.
The following compounds at 20 ppm in the applied formulation give at least 80% disease control in this test when compared to untreated control under the same conditions, which show extensive disease development.

SMILES | pest or weed control at 200 ppm [1] | pest or weed control at 200 ppm [2] | inhibition at 20 ppm [3]
CCCC(=O)C(=O)N(CCOC)Cc1ccc(-c2noc(C(F)(F)F)n2)cc1 [Compound 1.9, N-(2-methoxyethyl)-2-oxo-N-[[4-[5-(trifluoromethyl)-1,2,4-oxadiazol-3-yl]phenyl]methyl]pentanamide] | ≥ 80% | ≥ 80% | ≥ 80%
CC(=O)C(=O)N(Cc1ccc(-c2noc(C(F)(F)F)n2)cc1)CC1CCCO1 (centres unmarked) [Compound 1.14, 2-oxo-N-(tetrahydrofuran-2-ylmethyl)-N-[[4-[5-(trifluoromethyl)-1,2,4-oxadiazol-3-yl]phenyl]methyl]propanamide] | ≥ 80% | ≥ 80% | ≥ 80%
CCCC(=O)C(=O)N(Cc1ccc(-c2noc(C(F)(F)F)n2)cc1)Cc1ccco1 [Compound 1.15, N-(2-furylmethyl)-2-oxo-N-[[4-[5-(trifluoromethyl)-1,2,4-oxadiazol-3-yl]phenyl]methyl]pentanamide] | ≥ 80% | ≥ 80% | ≥ 80%
CC(=O)C(=O)NCc1ccc(-c2noc(C(F)(F)F)n2)c(F)c1 [Compound 1.25, N-[[3-fluoro-4-[5-(trifluoromethyl)-1,2,4-oxadiazol-3-yl]phenyl]methyl]-2-oxo-propanamide] | ≥ 80% | ≥ 80% | ≥ 80%
CC(=O)C(=O)NCc1ccc(-c2noc(C(F)(F)F)n2)cc1F [Compound 1.26, N-[[2-fluoro-4-[5-(trifluoromethyl)-1,2,4-oxadiazol-3-yl]phenyl]methyl]-2-oxo-propanamide] | ≥ 80% | ≥ 80% | ≥ 80%
CC(=O)C(=O)NCc1ccc(-c2noc(C(F)(F)F)n2)c(F)c1F [Compound 1.27, N-[[2,3-difluoro-4-[5-(trifluoromethyl)-1,2,4-oxadiazol-3-yl]phenyl]methyl]-2-oxo-propanamide] | ≥ 80% | ≥ 80% | ≥ 80%
CCC(=O)C(=O)NCc1ccc(-c2noc(C(F)(F)F)n2)cc1C [Compound 1.85, N-[[2-methyl-4-[5-(trifluoromethyl)-1,2,4-oxadiazol-3-yl]phenyl]methyl]-2-oxo-butanamide] | ≥ 80% | ≥ 80% | ≥ 80%
COC(=O)C(=O)N(Cc1ccc(-c2noc(C(F)(F)F)n2)cc1)OC [Compound 3.2, methyl 2-[methoxy-[[4[5-(trifluoromethyl)-1,2,4-oxadiazol-3-yl]phenyl]methyl]amino]-2-oxo-acetate] | ≥ 80% | ≥ 80% | ≥ 80%
CON(Cc1ccc(-c2noc(C(F)(F)F)n2)cc1)C(=O)C(=O)OC1COC1 [Compound 3.3, oxetan-3-yl 2-[methoxy-[[4-[5-(trifluoromethyl)-1,2,4-oxadiazol-3-yl]phenyl]methyl]amino]-2-oxo-acetate] | ≥ 80% | ≥ 80% | ≥ 80%
CON(Cc1ccc(-c2noc(C(F)(F)F)n2)cc1)C(=O)C(=O)O [Compound 3.7, 2-[methoxy-[[4-[5-(trifluoromethyl)-1,2,4-oxadiazol-3-yl]phenyl]methyl]amino]-2-oxo-acetic acid] |  | ≥ 80% | ≥ 80%
CCOC(=O)C(=O)N(Cc1ccc(-c2noc(C(F)(F)F)n2)cc1)OC [Compound 3.10, ethyl 2-[methoxy-[[4-[5-(trifluoromethyl)-1,2,4-oxadiazol-3-yl]phenyl]methyl]amino]-2-oxo-acetate] | ≥ 80% | ≥ 80% | ≥ 80%
CN(C)C(=O)C(=O)Nc1ccc(-c2noc(C(F)(F)F)n2)cn1 [Compound 4.10, N′,N′-dimethyl-N-[5-[5-(trifluoromethyl)-1,2,4-oxadiazol-3-yl]-2-pyridyl] oxamide] | ≥ 80% | ≥ 80% | 
CC(C)(CS(C)(=O)=O)NC(=O)C(=O)Nc1ccc(-c2noc(C(F)(F)F)n2)cc1 [Compound 4.17] | ≥ 80% | ≥ 80% | 
NC(=O)C(=O)N(Cc1ccc(-c2noc(C(F)(F)F)n2)cc1)OCc1ccc(Cl)cc1 [Compound 4.34, N′-[(4-chlorophenyl)methoxy]-N′-[[4-[5-(trifluoromethyl)-1,2,4-oxadiazol-3-yl]phenyl]methyl] oxamide] | ≥ 80% |  | ≥ 80%
CCON(C)C(=O)C(=O)NCc1ccc(-c2noc(C(F)(F)F)n2)cc1 [Compound 4.43, N′-ethoxy-N′-methyl-N-[[4-[5-(trifluoromethyl)-1,2,4-oxadiazol-3-yl]phenyl]methyl] oxamide] | ≥ 80% |  | ≥ 80%
CCNC(=O)C(=O)NCc1ccc(-c2noc(C(F)(F)F)n2)cc1 [Compound 4.49, N-ethyl-N′-[[4-[5-(trifluoromethyl)-1,2,4-oxadiazol-3-yl]phenyl]methyl] oxamide] | ≥ 80% |  | ≥ 80%
C=CCNC(=O)C(=O)NCc1ccc(-c2noc(C(F)(F)F)n2)cc1 [Compound 4.57, N-allyl-N′-[[4-[5-(trifluoromethyl)-1,2,4-oxadiazol-3-yl]phenyl]methyl] oxamide] | ≥ 80% |  | ≥ 80%
O=C(NCc1ccc(-c2noc(C(F)(F)F)n2)cc1)C(=O)NCc1ccco1 [Compound 4.60, N′-(2-furylmethyl)-N-[[4-[5-(trifluoromethyl)-1,2,4-oxadiazol-3-yl]phenyl]methyl] oxamide] | ≥ 80% |  | ≥ 80%
CON(Cc1ccc(-c2noc(C(F)(F)F)n2)cc1)C(=O)C(=O)NC1CCCCC1 [Compound 4.63, N-cyclohexyl-N′-methoxy-N′-[[4-[5-(trifluoromethyl)-1,2,4-oxadiazol-3-yl]phenyl]methyl] oxamide] | ≥ 80% |  | ≥ 80%
CON(Cc1ccc(-c2noc(C(F)(F)F)n2)cc1)C(=O)C(=O)Nc1ccccc1 [Compound 4.70, N′-methoxy-N-phenyl-N′-[[4-[5-(trifluoromethyl)-1,2,4-oxadiazol-3-yl]phenyl]methyl] oxamide] | ≥ 80% |  | ≥ 80%
CON(Cc1ccc(-c2noc(C(F)(F)F)n2)cc1)C(=O)C(=O)NCc1ccccc1 [Compound 4.71, N-benzyl-N′-methoxy-N'-[[4-[5-(trifluoromethyl)-1,2,4-oxadiazol-3-yl]phenyl]methyl] oxamide] | ≥ 80% |  | ≥ 80%
CON(Cc1ccc(-c2noc(C(F)(F)F)n2)cc1)C(=O)C(=O)NC1CCCC1 [Compound 4.79, N-cyclopentyl-N′-methoxy-N′-[[4-[5-(trifluoromethyl)-1,2,4-oxadiazol-3-yl]phenyl]methyl] oxamide] | ≥ 80% |  | ≥ 80%
CON(Cc1ccc(-c2noc(C(F)(F)F)n2)cc1)C(=O)C(=O)NCc1ccco1 [Compound 4.81, N-(2-furylmethyl)-N′-methoxy-N′-[[4-[5-(trifluoromethyl)-1,2,4-oxadiazol-3-yl]phenyl]methyl] oxamide] | ≥ 80% |  | ≥ 80%
